From US11549123B2, “Plant EPSP synthases and methods of use” (PIONEER HI-BRED INTERNATIONAL, INC., priority 2015, dated 2023) come the findings set out here.

What all share (format): biochemical
Assay [1] concerns the target T1, Zea mays EPSPS variant Zm-A189T (Zea mays, UniProt O24566, A188T).
T1 sequence (O24566 with tags, fused parts or gaps A188T): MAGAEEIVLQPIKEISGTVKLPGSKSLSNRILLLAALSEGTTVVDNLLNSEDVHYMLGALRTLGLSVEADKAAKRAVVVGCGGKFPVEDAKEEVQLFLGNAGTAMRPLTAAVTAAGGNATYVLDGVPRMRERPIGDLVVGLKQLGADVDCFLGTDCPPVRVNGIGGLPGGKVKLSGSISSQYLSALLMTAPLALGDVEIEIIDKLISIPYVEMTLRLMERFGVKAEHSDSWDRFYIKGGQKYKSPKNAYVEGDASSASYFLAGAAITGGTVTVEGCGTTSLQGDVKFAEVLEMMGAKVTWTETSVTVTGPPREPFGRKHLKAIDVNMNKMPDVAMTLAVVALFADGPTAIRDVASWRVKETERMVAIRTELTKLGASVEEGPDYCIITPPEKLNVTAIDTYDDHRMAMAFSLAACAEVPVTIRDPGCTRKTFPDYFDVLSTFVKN
Description: Substrate saturation kinetic analysis with glyphosate, Zm-A189T.

For assay [2], the target named is T2, Zea mays EPSPS variant Zm-H6 (868-H6) with A36G (H6-A36G) (Zea mays, UniProt O24566, A1R/A35G/A3W/A415G/A71Q/D401G/E301S/E390G/G101A/I207L/K83R/L97C/T278A/T360S/T440Q/V437R).
T2 sequence (O24566 with tags, fused parts or gaps A1R/A3W/A35G/A71Q/K83R/L97C/G101A/I207L/T278A/E301S/T360S/E390G/D401G/A415G/V437R/T440Q): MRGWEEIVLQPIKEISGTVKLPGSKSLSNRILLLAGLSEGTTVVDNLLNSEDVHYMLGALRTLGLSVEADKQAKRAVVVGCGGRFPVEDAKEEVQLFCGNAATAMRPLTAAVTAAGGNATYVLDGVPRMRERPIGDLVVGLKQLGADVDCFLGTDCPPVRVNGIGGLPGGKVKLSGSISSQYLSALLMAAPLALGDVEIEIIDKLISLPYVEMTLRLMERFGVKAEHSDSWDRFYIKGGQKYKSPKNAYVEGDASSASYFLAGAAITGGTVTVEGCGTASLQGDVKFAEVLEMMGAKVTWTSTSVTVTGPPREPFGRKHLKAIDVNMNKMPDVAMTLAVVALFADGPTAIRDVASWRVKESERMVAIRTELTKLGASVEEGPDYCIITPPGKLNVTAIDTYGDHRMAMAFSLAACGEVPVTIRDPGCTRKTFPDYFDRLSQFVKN
As to the kind of experiment: Rapid two-rate method for (kcat/KM)*KI, H6-A36G. The following applies: [E] 0.07 uM, [Gly] 1000 uM. The source says: There are several practical considerations for accurately estimating (kcat/KM)*KI with the rapid method. […] 2) The inhibitor concentration must be adjusted so as to obtain a degree of inhibition that minimally amplifies the error in the term v0-vi in Equation 3. If inhibition is too little, v0-vi will be small, and the error in the multiplier vi×v0/(v0-vi) will be large. […] 3) Substrate concentration should be set at the approximate KM of the parental variant(s), subject to the sensitivity of the assay. High substrate concentration obscures sensitivity to the inhibitor and reduces stringency for capturing improvements in KM. Depending on the necessity for speed, there exists opportunity for customizing enzyme and inhibitor concentrations. […] The rapid method was repeated for those and obtained data that correlated better with data obtained by substrate saturation analysis. For screening purposes however, that correlation step is not necessary. Conditions can be set so that variants with a pre-determined minimal fitness level are accurately quantified.
In Table 15, parameters above the heavy line for the rapid method were obtained under standard conditions. For variants shown below the heavy line, the rapid analysis was repeated with enzyme or glyphosate concentrations adjusted as needed to generate sufficient signal within the limits for linear initial rates.

Assay [3] has as its target Zea mays EPSPS variant 311S (Zea mays, UniProt O24566, P310S). As to the kind of experiment: EPSPS reaction rate with or without 10 uM glyphosate, 311S. Also: 50 µM PEP and S3P. The following applies: pH 7; read-out: Reaction rate with 10 μM glyph, % no glyph.
In assay [4] the target is Zea mays EPSPS variant WT-FS-E2 (102A 302S 391G 438R I208L) (Zea mays, UniProt O24566, E301S/E390G/G101A/I207L/V437R). Description: EPSPS substrate saturation kinetics, WT-FS-E2. The procedure: EPSPS activity was determined by quantifying the phosphate generated from the EPSPS reaction. Release of inorganic phosphate was coupled to reaction with 2-amino-6-mercapto-7-methylpurine ribonucleoside, catalyzed by purine-nucleoside phosphorylase (M R Webb, Proc. Natl. Acad. Sci. 89:4884-4887, 1992). The absorbance change that occurs was monitored at 360 nm, where the extinction is 11,200 M^−1 cm^−1, with a Spectramax plate reader (Molecular Devices). To determine kinetic parameters, the varied substrate was present at seven concentrations (the eighth being the blank, containing no substrate) ranging from 4 to 400 uM and the unvaried substrate present at saturation. […] Reactions were monitored with a Spectramax plate reader. […] KI was then calculated from the following form of the Michaelis-Menten equation for competitive inhibition: KI=KM[I]/(KM app−KM) KM approximates the dissociation constant of the enzyme-substrate complex while kcat is the rate of conversion of substrate to product when the substrate concentration is saturating. kcat/KM is a widely accepted parameter for catalytic efficiency when substrate concentration is low (˜KM). […] The parameter kcat/KM×KI is used to quantify both catalytic efficiency and insensitivity and thus the overall fitness of the enzyme. […]
Chain of Zea mays EPSPS variant WT-FS-E2 (102A 302S 391G 438R I208L) (O24566 entry or part of it G101A/I207L/E301S/E390G/V437R): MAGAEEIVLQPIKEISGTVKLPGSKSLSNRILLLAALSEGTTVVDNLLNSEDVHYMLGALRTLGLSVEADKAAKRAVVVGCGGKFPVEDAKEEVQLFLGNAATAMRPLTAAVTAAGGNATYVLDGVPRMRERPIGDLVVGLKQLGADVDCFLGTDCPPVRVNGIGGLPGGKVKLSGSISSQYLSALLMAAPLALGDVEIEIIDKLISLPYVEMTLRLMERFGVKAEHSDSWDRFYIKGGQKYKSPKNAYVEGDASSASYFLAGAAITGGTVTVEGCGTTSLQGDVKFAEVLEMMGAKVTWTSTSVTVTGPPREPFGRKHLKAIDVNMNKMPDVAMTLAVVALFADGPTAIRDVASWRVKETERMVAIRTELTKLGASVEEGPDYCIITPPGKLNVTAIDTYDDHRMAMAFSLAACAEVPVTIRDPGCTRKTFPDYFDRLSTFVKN

Chain of Zea mays EPSPS variant 311S (O24566 entry or part of it P310S): as the sequence (O24566 entry or part of it G101A/I207L/E301S/E390G/V437R) above, with A102G, L208I, S302E, P311S, G391E, R438V counted along it

`O=C(O)CNCP(=O)(O)O` [glyphosate, N-phosphonomethylglycine]: the Ki in assay [1] was determined as 337 µM; in assay [4], 663 µM. Further, the “(kcat/KM)*KI” value was 283 in assay [1] (substrate saturation, Zm-A189T); 4500 in assay [2]; 4512 in assay [4] (PEP as substrate, glyphosate as inhibitor). Further, the activity at 10 µM in assay [3] is 4.37%.

In general, Ki refers to the equilibrium dissociation constant of an inhibitor or competing ligand from its target.
